“And” between values parts separate entries of the source, which are not always exact repeats. Identical values can stand only once. Inconclusive results and toxic doses are left out. Cut-off read from the data, not from the text of the source: active = T/C of 150% or more; inactive = T/C below 125%.
Tested on: L1210 leukemia ip in BDF1 mice, survival T/C
Assay: NCI In Vivo Anticancer Drug Screen. Data for tumor model L1210 Leukemia (intraperitoneal) in B6D2F1 (BDF1) mice
Conditions: endpoint: mean survival time, higher = longer survival
Procedure, shortened: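 Transplanted-tumor mice were given test agent; controls received vehicle only. Survival readings from the two groups were divided (treated over control).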

[1] = dose: 200.0 mg/kg/injection, schedule: Q01DX009 (ip), vehicle: saline with Tween-80
[2] = dose: 400.0 mg/kg/injection, schedule: Q01DX009 (ip), vehicle: saline with Tween-80
[3] = dose: 100.0 mg/kg/injection, schedule: Q01DX009 (ip), vehicle: saline with Tween-80
[4] = dose: 100.0 mg/kg/injection, schedule: Q04DX002 (ip), vehicle: saline with Tween-80
[5] = dose: 200.0 mg/kg/injection, schedule: Q04DX002 (ip), vehicle: saline with Tween-80
[6] = dose: 400.0 mg/kg/injection, schedule: Q04DX002 (ip), vehicle: saline with Tween-80
[7] = dose: 100.0 mg/kg/injection, schedule: Q01DX001 (ip), vehicle: saline
[8] = dose: 100.0 mg/kg/injection, schedule: Q01DX009 (ip), vehicle: Klucel (hydroxypropylcellulose) (HPC)
[9] = dose: 100.0 mg/kg/injection, schedule: Q04DX003 (ip), vehicle: Klucel (hydroxypropylcellulose) (HPC)
[10] = dose: 200.0 mg/kg/injection, schedule: Q01DX009 (ip), vehicle: Klucel (hydroxypropylcellulose) (HPC)
[11] = dose: 200.0 mg/kg/injection, schedule: Q04DX003 (ip), vehicle: Klucel (hydroxypropylcellulose) (HPC)
[12] = dose: 400.0 mg/kg/injection, schedule: Q01DX009 (ip), vehicle: Klucel (hydroxypropylcellulose) (HPC)
[13] = dose: 400.0 mg/kg/injection, schedule: Q04DX003 (ip), vehicle: Klucel (hydroxypropylcellulose) (HPC)
[14] = dose: 50.0 mg/kg/injection, schedule: Q01DX009 (ip), vehicle: Klucel (hydroxypropylcellulose) (HPC)

Measured: T/C

O=C(O)CCN(CCC(=O)O)CCC(=O)O
inactive: dose: 44.0 mg/kg/injection, schedule: Q01DX009 (ip), vehicle: alkali diluted with saline 97 % of control | dose: 66.0 mg/kg/injection, schedule: Q01DX009 (ip), vehicle: saline 96 % of control | dose: 67.0 mg/kg/injection, schedule: Q01DX009 (ip), vehicle: alkali diluted with saline 98 % of control | dose: 100.0 mg/kg/injection, schedule: Q01DX009 (ip), vehicle: alkali diluted with saline 101 % of control | dose: 100.0 mg/kg/injection, schedule: Q01DX009 (ip), vehicle: saline 94 % of control | dose: 100.0 mg/kg/injection, schedule: Q04DX003 (ip), vehicle: alkali diluted with saline 100 % of control | dose: 150.0 mg/kg/injection, schedule: Q01DX009 (ip), vehicle: alkali diluted with saline 103 % of control | dose: 150.0 mg/kg/injection, schedule: Q01DX009 (ip), vehicle: saline 102 % of control | [1] 101 % of control | dose: 200.0 mg/kg/injection, schedule: Q04DX003 (ip), vehicle: alkali diluted with saline 108 % of control | [2] 100 % of control | dose: 400.0 mg/kg/injection, schedule: Q04DX003 (ip), vehicle: alkali diluted with saline 97 % of control

O=C(c1ccccc1)C1(c2ccccc2)OC1(C(=O)c1ccccc1)c1ccccc1 (centres undefined)
inactive: dose: 100.0 mg/kg/injection, schedule: Q01DX001 (ip), vehicle: Klucel (hydroxypropylcellulose) (HPC) 94 % of control | [3] 92 % of control | dose: 200.0 mg/kg/injection, schedule: Q01DX001 (ip), vehicle: Klucel (hydroxypropylcellulose) (HPC) 94 % of control | [1] 101 % of control | dose: 400.0 mg/kg/injection, schedule: Q01DX001 (ip), vehicle: Klucel (hydroxypropylcellulose) (HPC) 87 % of control | [2] 95 % of control

CCCOc1cc(C)c2cc(Cc3cc(C)c4nc(OCCC)cc(C)c4c3)cc(C)c2n1
inactive: dose: 100.0 mg/kg/injection, schedule: Q01DX001 (ip), vehicle: other 87 % of control | dose: 200.0 mg/kg/injection, schedule: Q01DX001 (ip), vehicle: other 95 % of control | dose: 400.0 mg/kg/injection, schedule: Q01DX001 (ip), vehicle: other 101 % of control

CCN(CC)CCN1C(=O)CN=C(c2ccc[nH]2)c2cc(Cl)ccc21
inactive: [3] 121 % of control | dose: 100.0 mg/kg/injection, schedule: Q04DX003 (ip), vehicle: saline with Tween-80 100 % of control | [1] 106 % of control | dose: 200.0 mg/kg/injection, schedule: Q04DX003 (ip), vehicle: saline with Tween-80 94 % of control | [2] 117 % of control | dose: 400.0 mg/kg/injection, schedule: Q04DX003 (ip), vehicle: saline with Tween-80 96 % of control

O=P(CCC(O)c1ccccc1)(c1ccccc1)c1ccccc1 (centres undefined)
inactive: dose: 100.0 mg/kg/injection, schedule: Q01DX001 (ip), vehicle: saline with Tween-80 93 % of control | dose: 200.0 mg/kg/injection, schedule: Q01DX001 (ip), vehicle: saline with Tween-80 106 % of control | dose: 400.0 mg/kg/injection, schedule: Q01DX001 (ip), vehicle: saline with Tween-80 100 % of control

CCOC(=O)C(C(=S)Nc1ccccc1)=S(C)C
inactive: [4] 87 % of control | [5] 87 % of control | [6] 91 % of control

O=[N+]([O-])c1ccc(Cl)cc1/C=N/Nc1c2ccccc2nc2ccccc12
inactive: [7] 92 % of control

O=C(O)CCC(=O)Nc1ccc(S(=O)(=O)Nc2nccs2)cc1
inactive: dose: 3.5 mg/kg/injection, schedule: Q01DX009 (ip), vehicle: Klucel (hydroxypropylcellulose) (HPC) 93 % of control | dose: 5.3 mg/kg/injection, schedule: Q01DX009 (ip), vehicle: Klucel (hydroxypropylcellulose) (HPC) 93 % of control | dose: 8.0 mg/kg/injection, schedule: Q01DX009 (ip), vehicle: Klucel (hydroxypropylcellulose) (HPC) 91 % of control | [8] 94 % of control | [9] 101 % of control | [10] 98 % of control | [11] 103 % of control | [12] 94 % of control | [13] 97 % of control

c1cc[c]([Sn]([S]c2nc3ccccc3s2)([c]2ccccc2)[c]2ccccc2)cc1
inactive: dose: 5.0 mg/kg/injection, schedule: Q04DX002 (ip), vehicle: saline with Tween-80 104 % of control | dose: 10.0 mg/kg/injection, schedule: Q04DX002 (ip), vehicle: saline with Tween-80 97 % of control | dose: 20.0 mg/kg/injection, schedule: Q04DX002 (ip), vehicle: saline with Tween-80 97 % of control

CC(C)(C)OC(=O)NC(CSCc1ccccc1)C(=O)O (centres undefined)
inactive: [14] 98 % of control | [8] 92 % of control | [3] 91 % of control | [10] 98 % of control | [1] 89 % of control

COc1ccc(N=Cc2ccc(OC(=O)c3ccccc3)c(OC)c2)cc1
inactive: [4] 100 % of control | [5] 100 % of control | [6] 93 % of control

COc1cc(OC)c(NC(=O)C(Cl)(Cl)Cl)cc1Cl
inactive: dose: 100.0 mg/kg/injection, schedule: Q04DX002 (ip), vehicle: Klucel (hydroxypropylcellulose) (HPC) 98 % of control | dose: 200.0 mg/kg/injection, schedule: Q04DX002 (ip), vehicle: Klucel (hydroxypropylcellulose) (HPC) 95 % of control | dose: 400.0 mg/kg/injection, schedule: Q04DX002 (ip), vehicle: Klucel (hydroxypropylcellulose) (HPC) 95 % of control

Cc1cc(C)c(CC(=N)c2ccccc2)c(C)c1
inactive: dose: 100.0 mg/kg/injection, schedule: Q01DX001 (ip), vehicle: acetone 96 % of control | dose: 200.0 mg/kg/injection, schedule: Q01DX001 (ip), vehicle: acetone 94 % of control | dose: 400.0 mg/kg/injection, schedule: Q01DX001 (ip), vehicle: acetone 88 % of control

NC(=O)NOCc1ccc([N+](=O)[O-])cc1
inactive: dose: 100.0 mg/kg/injection, schedule: Q04DX003 (ip), vehicle: saline 98 % of control | dose: 200.0 mg/kg/injection, schedule: Q04DX003 (ip), vehicle: saline 101 % of control | dose: 400.0 mg/kg/injection, schedule: Q04DX003 (ip), vehicle: saline 115 % of control

Cc1cc(C(C)(C)C)c(O)c(C(C)(C)C)c1
inactive: dose: 25.0 mg/kg/injection, schedule: Q01DX009 (ip), vehicle: Klucel (hydroxypropylcellulose) (HPC) 110 % of control | [14] 103 % of control | [8] 113 % of control | [9] 103 % of control | [11] 114 % of control | [13] 95 % of control

O=C1c2ccccc2-c2cc(Cl)c(Cl)cc21
inactive: [9] 96 % of control | [11] 103 % of control | [13] 105 % of control

O=C(Nc1ccccc1)Nc1ccccc1
inactive: dose: 50.0 mg/kg/injection, schedule: Q01DX009 (ip), vehicle: saline with Tween-80 96 % of control | [7] 97 % of control | [3] 91 % of control | [9] 90 % of control | dose: 200.0 mg/kg/injection, schedule: Q01DX001 (ip), vehicle: saline 92 % of control | [1] 103 % of control | [11] 95 % of control | dose: 400.0 mg/kg/injection, schedule: Q01DX001 (ip), vehicle: saline 94 % of control | [13] 96 % of control

C[N+](C)(C)CCOc1ccccc1Cc1ccccc1
inactive: dose: 1.56 mg/kg/injection, schedule: Q01DX003 (ip), vehicle: saline 96 % of control | dose: 3.12 mg/kg/injection, schedule: Q01DX003 (ip), vehicle: saline 100 % of control | dose: 3.12 mg/kg/injection, schedule: Q01DX009 (ip), vehicle: saline 96 % of control and 100 % of control | dose: 6.25 mg/kg/injection, schedule: Q01DX003 (ip), vehicle: saline 96 % of control | dose: 6.25 mg/kg/injection, schedule: Q01DX009 (ip), vehicle: saline 106 % of control | dose: 12.5 mg/kg/injection, schedule: Q01DX009 (ip), vehicle: saline 105 % of control and 89 % of control | dose: 12.5 mg/kg/injection, schedule: Q04DX003 (ip), vehicle: saline 111 % of control

O=C/C=C\C=C/Nc1ccc([N+](=O)[O-])cc1[N+](=O)[O-]
inactive: dose: 100.0 mg/kg/injection, schedule: Q04DX002 (ip), vehicle: DMSO 94 % of control | dose: 200.0 mg/kg/injection, schedule: Q04DX002 (ip), vehicle: DMSO 98 % of control | dose: 400.0 mg/kg/injection, schedule: Q04DX002 (ip), vehicle: DMSO 102 % of control

O=C(NCCCl)NC1CCCCCC1
inactive: [8] 101 % of control | [10] 108 % of control | [12] 100 % of control

Source: PubChem BioAssay AID248 (DTP/NCI, 2004)
